Measurements published in PubChem BioAssay (NCI).
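Results reflect a 48-hour exposure of cells in 96-well plates to compound at five concentrations. Abbreviation: GI50, concentration required for 50% inhibition of growth. TGI is the concentration that stops growth completely.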

What was measured:
Assay in all cases: DTP human tumour cell line panel, 48 h
UACC-62 melanoma = tested on: UACC-62 melanoma
TK-10 renal = tested on: TK-10 renal
HOP-92 NSCLC = tested on: HOP-92 NSCLC
SK-OV-3 ovarian = tested on: SK-OV-3 ovarian
SF-268 CNS = tested on: SF-268 CNS
U251 CNS = tested on: U251 CNS
ACHN renal = tested on: ACHN renal
MALME-3M melanoma = tested on: MALME-3M melanoma
OVCAR-3 ovarian = tested on: OVCAR-3 ovarian
SW-620 colon = tested on: SW-620 colon
NCI-H460 lung = tested on: NCI-H460 lung

| SMILES | GI50 (UACC-62 melanoma) [nM] | TGI (UACC-62 melanoma) [µM] | TGI (TK-10 renal) [µM] | TGI (HOP-92 NSCLC) [µM] | TGI (SK-OV-3 ovarian) [µM] | TGI (SF-268 CNS) [µM] | TGI (U251 CNS) [µM] | TGI (ACHN renal) [µM] | TGI (MALME-3M melanoma) [µM] | TGI (OVCAR-3 ovarian) [µM] | TGI (SW-620 colon) [µM] | TGI (NCI-H460 lung) [µM] |
| --- | --- | --- | --- | --- | --- | --- | --- | --- | --- | --- | --- | --- |
| COc1ccc2c(c1)/C(=C\c1cccc(/C=C3/C(=O)Nc4ccc(OC)cc43)n1)C(=O)N2 | 703 | 2.28 | 6.57 | 7.44 | 17.3 | > 39.9 | 5.83 | 5.41 | 5.51 | 5.38 | 7.92 | > 24.6 |
| O=C(/C=C\c1ccccc1-c1ccccc1)c1ccccc1 |  | > 100 | > 100 | > 100 | > 100 | > 100 | > 100 | > 100 |  | > 100 | > 100 | > 100 |
| O=c1[nH]n(Cc2ccccc2CCl)c2ccc([N+](=O)[O-])cc12 |  | > 100 | > 100 | > 100 | 81.8 | > 100 | > 100 | > 100 | > 100 | > 100 | > 100 | 95.8 |
| COc1ccc(/C=C/[N+](=O)[O-])cc1 |  | 39.7 | 27 |  |  | 8.11 | 19.1 | 32.4 | 35.3 | 8.62 | > 100 | 55.3 |
| COc1ccc(-c2cc(-c3ccco3)c(C#N)c(=S)n2C2OC(CO)C(O)C(O)C2O)cc1 (stereo unspecified) |  |  | > 100 |  | > 100 | > 100 | > 100 | > 100 | > 100 | > 100 | > 100 | > 100 |
| CCn1c(SCC(=O)NNC(=S)Nc2ccc(F)cc2)nc2ccccc2c1=O |  | > 100 | > 100 |  | > 100 | > 100 | > 100 | > 100 | > 100 | > 100 | > 100 |  |
| C(/C=N/NC1=NCCCN1)=N\NC1=NCCCN1 |  | > 100 |  | > 100 | > 100 | > 100 | > 100 | > 100 | > 100 | > 100 | > 100 | > 100 |
| CC(CCC(=O)O)[C@H]1CCC2[C@H]3C(CC(=O)[C@@]21C)[C@@]1(C)CCC(O)C[C@H]1C[C@@H]3O (stereo partly specified) |  | > 100 |  | > 100 |  | > 100 | > 100 | > 100 | > 100 |  | > 100 | > 100 |
| CN1CCN(C(=S)N(C)C(=O)c2cccs2)CC1 |  | > 100 | > 100 | > 100 |  |  | > 100 | > 100 | > 100 | > 100 | > 100 | > 100 |
| COC(=O)/C(=C/CC(N=C(c1ccccc1)c1ccccc1)C(=O)OC)N=C(c1ccccc1)c1ccccc1 (stereo unspecified) |  | > 100 | > 100 |  | > 100 | > 100 | > 100 | > 100 | > 100 | > 100 | > 100 | > 100 |
| CCCCc1ccc(N2C(=O)c3cccnc3S2(=O)=O)cc1 |  | > 100 |  | > 100 | > 100 | > 100 | > 100 | > 100 | > 100 | > 100 | > 100 | > 100 |
| Cc1ccnc2nc3[nH]c4ccccc4c3cc12 |  | > 100 | > 100 | > 100 |  | > 100 | > 100 | > 100 |  | > 100 | > 100 | > 100 |
| Cc1cc2nc3c(C#N)c(-c4ccccc4)cc(Nc4ccc(F)cc4)n3c2cc1C |  |  | 39.3 | 36.5 | 69.9 | 27.9 | 16.3 | > 100 | 70 | 46.4 | > 100 |  |
| CC1(C)OC(=O)CC12CCN(Cc1ccccc1)CC2 |  | > 100 | > 100 | > 100 | > 100 | > 100 | > 100 | > 100 | > 100 | > 100 |  |  |
| COC(=O)/C(C#N)=C(\Nc1ccccc1)N1CCCCC1 |  |  | > 100 | > 100 | > 100 | > 100 | > 100 | > 100 | > 100 | > 100 | > 100 | > 100 |
| CN(C)CCN1C(=O)c2ccccc2C1(O)c1ccc(Cl)cc1 (stereo unspecified) |  | > 100 | > 100 |  | > 100 | > 100 | > 100 | > 100 | 70.7 | > 100 | > 100 | > 100 |
| O=S1(=O)OCCCOS(=O)(=O)C1Br |  | > 100 | > 100 |  | > 100 | > 100 | > 100 | > 100 | > 100 | > 100 | > 100 |  |
| CCOC(=O)c1c(NC(=O)c2ccc(OC)cc2)sc2c1CCCC2 |  | > 100 | > 100 |  |  | > 100 | > 100 | > 100 |  | > 100 | > 100 | > 100 |
| CSc1ccc(-c2cc(-c3nc4ccccc4[nH]3)nc3[nH]c(-c4nc5ccccc5[nH]4)cc(=O)c23)cc1 |  | > 100 | > 100 | > 100 | > 100 | > 100 | > 100 | > 100 | > 100 | > 100 |  | > 100 |
| C/C(=N/NC(=S)N1CCCC1)c1cccc(/C(C)=N\NC(=S)N2CCCC2)n1 |  | 9.39 | 3.71 |  | 4.65 | 14.7 | 4.14 | 3.4 | 4.89 | 2.63 | 4.33 | 3.63 |
| CCOC(=O)C1C(c2ccc([N+](=O)[O-])cc2)NC(c2ccc([N+](=O)[O-])cc2)C(C(=O)OC)S1(=O)=O (stereo unspecified) |  | > 100 | > 100 |  | > 100 | > 100 | > 100 | > 100 | > 100 | > 100 | > 100 | > 100 |
| COc1cc(CCCC(O)COc2cccc3c2C2(O)CCCCCC32)cc(OC)c1 (stereo unspecified) |  | 30.6 | 28.1 | 19.9 | 38.5 | 32.9 | 32.9 | 29.4 | 31.8 |  | 31.6 | 34.7 |
